Data from US7084128B2, “Method for reducing intraocular pressure” (Inspire Pharmaceuticals, Inc., priority 2002, dated 2006).

How the values were obtained:
intraocular pressure = settings: literature (Peral et al. 2000; Pintor et al. 2000); cited from earlier work
[1] = tested on: intraocular pressure (IOP); settings: New Zealand white rabbits; for time of maximal reduction in IOP: 0.25 mM topical single dose, IOP measured at 0.5, 1, 2 and 5 hours after application; for maximal reduction in IOP: 10 microliters of 0.25 mM in 0.9% saline, topical, unilateral, single dose, at time of maximal effect, n=4
Protocol: The actions of 2′-(O)-, 3′-(O)-(benzyl)methylenedioxy-adenosine-5′-triphosphate (Compound 1) and 2′-(O)-, 3′-(O)-(benzyl)methylenedioxy-2″-(O)-,3″-(O)-benzyl methylenedioxy-P^1, P^4-di(adenosine 5′-)tetraphosphate (Compound 2) on intraocular pressure (IOP) were assessed in New Zealand white rabbits.
Intraocular pressure measurements: IOP was measured using a TONOPEN contact tonometer supplied by MENTOR (USA). Ten microliters of the agents were applied topically and unilaterally to the cornea, whereas the contralateral eye received the same volume of saline solution. The corneas were anesthetized to avoid any discomfort associated with the use of the tonometer. Two measurements were made before application of the agents.
Pharmacological studies: Compounds were prepared at a concentration of 0.25 mM in 0.9% saline and intraocular pressure was measured at 0.5, 1, 2, and 5 hours after the application. A single dose was tested in a single animal on a single day.

Molecule	effect on intraocular pressure in rabbits (intraocular pressure)	time of maximal reduction in IOP [1] [h]	maximal reduction in IOP [1] [%]
Nc1ncnc2c1ncn2[C@@H]1O[C@H](COP(=O)(O)OP(=O)(O)OP(=O)(O)OP(=O)(O)OC[C@H]2O[C@@H](n3cnc4c(N)ncnc43)[C@H](O)[C@@H]2O)[C@@H](O)[C@H]1O [Diadenosine tetraphosphate]	lower intraocular pressure	–	–
Nc1ncnc2c1ncn2[C@@H]1O[C@H](COP(=O)(O)CP(=O)(O)OP(=O)(O)O)[C@@H](O)[C@H]1O [Alpha, Beta-Methylene adenosine triphosphate]	reduce intraocular pressure	–	–
Nc1ncnc2c1ncn2[C@@H]1O[C@H](COP(=O)(O)OP(=O)(O)OP(=O)(O)OP(=O)(O)OC[C@H]2O[C@@H](n3cnc4c(N)ncnc43)[C@@H]3OC(Cc4ccccc4)O[C@@H]32)[C@H]2OC(Cc3ccccc3)O[C@H]21 (stereo partly shown) [Compound 2, 2′-(O)-, 3′-(O)-(benzyl)methylenedioxy-2″-(O)-,3″-(O)-benzyl methylenedioxy-P^1, P^4-di(adenosine 5′-)tetraphosphate]	–	1	22
2′-(O)-, 3′-(O)-(benzyl)methylenedioxy-adenosine-5′-triphosphate [Compound 1]	–	1 to 2	21
Nc1ncnc2c1ncn2[C@@H]1O[C@H](COP(=O)(O)OP(=O)(O)CP(=O)(O)O)[C@@H](O)[C@H]1O [beta, gamma methylene adenosine triphosphate]	reduce intraocular pressure	–	–
